{"source": "patent US11746116B2", "about": "“Antibiotic resistance breakers” (KING'S COLLEGE LONDON, priority 2017, dated 2023)", "key": {"[1]": {"test_system": "Staphylococcus aureus ATCC29213", "experiment": "Murine thigh infection model, thigh bacterial burden", "assay_type": "in vivo", "details": "neutropenic mice; for Log10 reduction from vehicle control / Thigh bacterial burden, Group Geometric mean / Thigh bacterial burden, Log10 Group Geometric mean: 8 h, 14 h post-infection, 18 h post infection; for decrease of thigh bacterial burden compared to vehicle group: 8 h and 14 h post infection, burden 18 h post infection"}, "CYP1A (printed CYPiA)": {"test_system": "CYP1A (printed CYPiA)", "experiment": "in vitro", "details": "human, microsomes, % inhibition, CYPiA inhibition (HLM, phenacetin substrate)"}, "CYP2C8": {"target": "CYP2C8 (Homo sapiens, UniProt P10632)", "sequence (P10632 whole entry)": "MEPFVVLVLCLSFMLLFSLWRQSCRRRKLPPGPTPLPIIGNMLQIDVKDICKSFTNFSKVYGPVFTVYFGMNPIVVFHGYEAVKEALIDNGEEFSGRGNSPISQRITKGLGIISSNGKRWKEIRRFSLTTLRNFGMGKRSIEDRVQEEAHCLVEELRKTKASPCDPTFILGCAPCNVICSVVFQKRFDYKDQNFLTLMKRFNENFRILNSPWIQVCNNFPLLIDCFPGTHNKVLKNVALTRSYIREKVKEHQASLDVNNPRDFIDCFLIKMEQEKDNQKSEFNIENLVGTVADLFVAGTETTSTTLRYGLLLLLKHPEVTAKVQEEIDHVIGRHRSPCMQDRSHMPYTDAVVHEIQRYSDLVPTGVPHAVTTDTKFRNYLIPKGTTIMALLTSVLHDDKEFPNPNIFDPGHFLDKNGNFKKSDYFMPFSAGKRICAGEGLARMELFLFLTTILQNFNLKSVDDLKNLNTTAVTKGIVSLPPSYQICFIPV", "experiment": "in vitro", "details": "microsomes, % inhibition, CYP2C8 inhibition (HLM, amodiaquine substrate)"}, "CYP2D6": {"target": "CYP2D6 (Homo sapiens, UniProt P10635)", "sequence (P10635 whole entry)": "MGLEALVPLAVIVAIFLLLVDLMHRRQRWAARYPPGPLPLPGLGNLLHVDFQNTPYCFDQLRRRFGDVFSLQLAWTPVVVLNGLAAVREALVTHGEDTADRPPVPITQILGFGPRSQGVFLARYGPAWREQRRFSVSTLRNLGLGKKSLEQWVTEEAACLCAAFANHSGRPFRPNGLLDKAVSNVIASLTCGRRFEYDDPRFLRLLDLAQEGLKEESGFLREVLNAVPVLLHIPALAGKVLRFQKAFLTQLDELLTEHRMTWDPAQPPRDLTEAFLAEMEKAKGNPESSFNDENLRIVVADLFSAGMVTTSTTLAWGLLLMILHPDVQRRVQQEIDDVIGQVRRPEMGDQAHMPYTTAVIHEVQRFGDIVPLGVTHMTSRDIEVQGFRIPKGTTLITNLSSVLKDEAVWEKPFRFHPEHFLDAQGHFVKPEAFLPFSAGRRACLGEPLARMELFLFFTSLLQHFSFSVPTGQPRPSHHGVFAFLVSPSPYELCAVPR", "experiment": "in vitro", "details": "microsomes, % inhibition, CYP2D6 inhibition (HLM, dextromethorphan substrate)"}, "CYP2C19": {"target": "CYP2C19 (Homo sapiens, UniProt P33261)", "sequence (P33261 whole entry)": "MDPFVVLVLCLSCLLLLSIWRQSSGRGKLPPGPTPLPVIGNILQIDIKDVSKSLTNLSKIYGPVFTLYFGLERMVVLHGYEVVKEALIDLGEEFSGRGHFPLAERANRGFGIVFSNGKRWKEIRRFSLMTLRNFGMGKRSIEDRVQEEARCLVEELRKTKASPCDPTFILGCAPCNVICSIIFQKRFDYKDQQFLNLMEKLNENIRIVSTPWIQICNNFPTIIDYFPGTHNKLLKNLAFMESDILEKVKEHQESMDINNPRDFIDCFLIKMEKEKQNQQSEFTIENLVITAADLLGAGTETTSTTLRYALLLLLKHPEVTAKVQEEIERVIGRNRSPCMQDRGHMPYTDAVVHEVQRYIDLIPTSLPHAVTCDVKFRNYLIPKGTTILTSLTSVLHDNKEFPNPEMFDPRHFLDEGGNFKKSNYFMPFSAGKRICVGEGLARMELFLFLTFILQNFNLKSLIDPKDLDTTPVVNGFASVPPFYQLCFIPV", "experiment": "in vitro", "details": "microsomes, % inhibition, CYP2C19 inhibition (HLM, omeprazole substrate)"}, "CYP2B6": {"target": "CYP2B6 (Homo sapiens, UniProt P20813)", "sequence (P20813 whole entry)": "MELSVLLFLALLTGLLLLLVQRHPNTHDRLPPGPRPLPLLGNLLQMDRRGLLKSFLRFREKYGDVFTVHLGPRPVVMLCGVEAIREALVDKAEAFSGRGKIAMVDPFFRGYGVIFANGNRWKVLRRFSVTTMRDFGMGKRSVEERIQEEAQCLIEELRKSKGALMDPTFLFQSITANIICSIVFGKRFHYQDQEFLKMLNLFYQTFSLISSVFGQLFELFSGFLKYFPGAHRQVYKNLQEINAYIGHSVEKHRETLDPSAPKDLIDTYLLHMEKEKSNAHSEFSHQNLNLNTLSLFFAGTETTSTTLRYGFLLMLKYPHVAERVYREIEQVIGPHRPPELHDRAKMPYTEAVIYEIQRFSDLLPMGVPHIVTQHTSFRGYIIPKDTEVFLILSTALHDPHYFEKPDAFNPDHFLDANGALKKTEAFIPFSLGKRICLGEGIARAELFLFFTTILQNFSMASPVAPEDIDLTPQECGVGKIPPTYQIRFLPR", "experiment": "in vitro", "details": "microsomes, % inhibition, CYP2B6 inhibition (HLM, bupropion substrate)"}, "CYP3A": {"test_system": "CYP3A", "experiment": "in vitro", "details": "human, microsomes, % inhibition"}, "CYP2C9": {"target": "CYP2C9 (Homo sapiens, UniProt P11712)", "sequence (P11712 whole entry)": "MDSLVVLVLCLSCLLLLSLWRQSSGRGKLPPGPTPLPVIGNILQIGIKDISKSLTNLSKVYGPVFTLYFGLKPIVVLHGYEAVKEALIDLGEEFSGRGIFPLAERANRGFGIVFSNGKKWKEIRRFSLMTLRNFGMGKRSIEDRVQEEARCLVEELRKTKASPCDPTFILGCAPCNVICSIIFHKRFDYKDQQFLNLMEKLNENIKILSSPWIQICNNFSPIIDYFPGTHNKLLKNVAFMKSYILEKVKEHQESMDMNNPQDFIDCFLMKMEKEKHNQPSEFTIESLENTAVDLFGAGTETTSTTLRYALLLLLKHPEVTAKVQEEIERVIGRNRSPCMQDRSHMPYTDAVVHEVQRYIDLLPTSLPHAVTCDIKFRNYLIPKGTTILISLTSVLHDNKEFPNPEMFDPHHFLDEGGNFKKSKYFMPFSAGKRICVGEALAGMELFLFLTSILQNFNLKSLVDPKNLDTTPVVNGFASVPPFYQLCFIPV", "experiment": "in vitro", "details": "microsomes, % inhibition, CYP2C9 inhibition (HLM, diclofenac substrate)"}, "in vivo": {"experiment": "in vivo", "details": "male, CD-1 (ICR), mouse, iv, 5 mg/kg"}, "[2]": {"experiment": "Single dose pharmacokinetics study, oral route", "details": "20 mg/kg"}, "PA01": {"test_system": "PA01", "experiment": "MIC, microdilution broth method", "assay_type": "cell-based, Pseudomonas aeruginosa"}, "[3]": {"test_system": "multidrug resistant strains", "experiment": "Reserpine growth assay in several multidrug resistant strains (FIG. 27)", "assay_type": "cell-based", "details": "compared to ML-83-009 or levofloxacin", "experimental": "Reserpine was added at a final concentration of 10 μg/mL (made up at 40 μg/mL in TSB, 50 μL per well). The bacteria were added at an OD of 0.01 in TSB (100 μL/well). The plate was a normal clear plate as used for MICs. OD was read every 30 minutes for 9 hours (the literature states 7 hours, but this is strain-dependent)."}, "VRE12201": {"test_system": "VRE12201", "experiment": "MIC, microdilution broth method", "assay_type": "cell-based, Enterococcus faecalis"}, "Ab17978": {"test_system": "Ab17978", "experiment": "MIC, microdilution broth method", "assay_type": "cell-based"}, "VRE12204": {"test_system": "VRE12204", "experiment": "MIC, microdilution broth method", "assay_type": "cell-based, Enterococcus faecium", "details": "ESKAPE panel, Gram-positive; in µg/mL"}, "KP13368": {"test_system": "KP13368", "experiment": "MIC, microdilution broth method", "assay_type": "cell-based"}, "[4]": {"details": "male, CD-1 (ICR), mouse, in vivo, po"}, "[5]": {"details": "ESKAPE panel, Gram-negative, in µg/mL"}}, "note": "Values joined by “and” are separate entries in the source; they are usually repeats but may differ in a detail not shown here. Equal values may be shown once.", "data": [{"smiles": "C[C@H]1COc2c(N3CC[C@@H](Nc4ncccn4)C3)c(F)cc3c(=O)c(C(=O)O)cn1c23", "note": "[KSN-82-L22]", "values": [{"measurement": "Log10 reduction from vehicle control", "setting": "[1]; 20 mg/kg PO at 2 h", "value": 5.00, "unit": "log10 CFU/g"}, {"measurement": "Thigh bacterial burden, Group Geometric mean", "setting": "[1]; 20 mg/kg PO at 2 h", "value": "2.01 × 10^3 cfu/g"}, {"measurement": "Thigh bacterial burden, Log10 Group Geometric mean", "setting": "[1]; 20 mg/kg PO at 2 h", "value": 3.30, "unit": "log10 cfu/g"}, {"measurement": "Log10 reduction from vehicle control", "setting": "[1]; 50 mg/kg PO at 2 h", "value": 5.16, "unit": "log10 CFU/g"}, {"measurement": "Thigh bacterial burden, Group Geometric mean", "setting": "[1]; 50 mg/kg PO at 2 h", "value": "1.37 × 10^3 cfu/g"}, {"measurement": "Thigh bacterial burden, Log10 Group Geometric mean", "setting": "[1]; 50 mg/kg PO at 2 h", "value": 3.14, "unit": "log10 cfu/g"}, {"measurement": "decrease of thigh bacterial burden compared to vehicle group", "setting": "[1]; 20 mg/kg/dose oral at 2 h, 20 mg/kg", "value": "5 log10 CFU/g and > 5 log10 CFU/g"}, {"measurement": "decrease of thigh bacterial burden compared to vehicle group", "setting": "[1]; 50 mg/kg/dose oral at 2 h, 50 mg/kg", "value": "5.16 log10 CFU/g and > 5 log10 CFU/g"}, {"measurement": "inhibition at 10 µM", "setting": "CYP1A (printed CYPiA)", "value": 9.56, "unit": "%"}, {"measurement": "inhibition at 10 µM", "setting": "CYP2C8", "value": 3.05, "unit": "%"}, {"measurement": "inhibition at 10 µM", "setting": "CYP2D6", "value": 0, "unit": "%"}, {"measurement": "inhibition at 10 µM", "setting": "CYP2C19", "value": 0.632, "unit": "%"}, {"measurement": "inhibition at 10 µM", "setting": "CYP2B6", "value": -1.32, "unit": "%"}, {"measurement": "inhibition at 10 µM", "setting": "CYP3A; CYP3A inhibition (HLM, midazolam substrate)", "value": 25.2, "unit": "%"}, {"measurement": "inhibition at 10 µM", "setting": "CYP3A; CYP3A inhibition (HLM, testosterone substrate)", "value": 6.52, "unit": "%"}, {"measurement": "inhibition at 10 µM", "setting": "CYP2C9", "value": 12.8, "unit": "%"}, {"measurement": "Vd", "setting": "in vivo", "value": "1 to 4", "unit": "L/kg"}, {"measurement": "Clast", "setting": "[2]; PO, Male CD1 mouse, blood, Mean", "value": 0.628, "unit": "µg/mL"}, {"measurement": "AUC", "setting": "[2]; [4]", "value": "8230 ng·h/mL and 19.3 µM·h"}, {"measurement": "AUC(0-inf)", "setting": "[2]; [4]", "value": 31, "unit": "µM·h"}, {"measurement": "Cmax", "setting": "[2]; [4]", "value": "4.01 µM and 2960 ng/mL"}, {"measurement": "Tmax", "setting": "[2]; [4]", "value": 1, "unit": "h"}]}, {"smiles": "Cc1cc(C)nc(N[C@@H]2CCN(c3c(F)cc4c(=O)c(C(=O)O)cn5c4c3OC[C@@H]5C)C2)n1", "note": "[KSN-BL7, (S)-10-((R)-3-((4,6-dimethylpyrimidin-2-yl)amino)pyrrolidin-1-yl)-9-fluoro-3-methyl-7-oxo-2,3-dihydro-7H-[1,4]oxazino[2,3,4-ij]quinoline-6-carboxylic acid]", "values": [{"measurement": "MIC, PA01", "setting": "PA01; [5]", "value": 8}, {"measurement": "MIC", "setting": "PA01; Pseudomonas aeruginosa", "value": 8, "unit": "mg/L"}, {"measurement": "efflux from the bacteria (reserpine growth assay)", "setting": "[3]", "value": "reduced efflux"}, {"measurement": "MIC, VRE12201", "setting": "VRE12201; ESKAPE panel, Gram-positive, in µg/mL", "value": 0.0313}, {"measurement": "MIC", "setting": "VRE12201; Enterococcus faecalis", "value": 0.03, "unit": "mg/L"}, {"measurement": "MIC", "setting": "Ab17978; Acinetobacter baumannii", "value": "≤ 0.125", "unit": "mg/L"}, {"measurement": "MIC, Ab17978", "setting": "Ab17978; [5]", "value": "≤0.125"}, {"measurement": "MIC, VRE12204", "setting": "VRE12204", "value": 1}, {"measurement": "MIC, KP13368", "setting": "KP13368; ESKAPE panel, Gram-negative", "value": 16, "unit": "mg/L"}, {"measurement": "MIC", "setting": "KP13368; Klebsiella pneumoniae", "value": 16, "unit": "mg/L"}]}]}
